The record followed here is ChEMBL document CHEMBL3286375, “Total synthesis and antiplasmodial activity of pohlianin C and analogues” (Bioorg Med Chem Lett, 2014).

One may read the inhibition as the percentage by which the read-out fell short of the control. As usually defined, the IC50 is the concentration that inhibits the measured activity by half.

Non-standard residues stand in square brackets, D forms with d. Residues, ends and D or L forms follow the SMILES beside them. 3Amb = NCc1cccc(C(=O)O)c1; 4Abz = Nc1ccc(C(=O)O)cc1; Ava = NCCCCC(=O)O

Test [1] has as its system Plasmodium falciparum. Briefly: Antiplasmodial activity against asexual blood stage chloroquine-sensitive Plasmodium falciparum 3D7 assessed as parasite growth inhibition at 40 uM by image-based assay relative to control. Type of test: functional.
Test [2] concerns Plasmodium falciparum. Briefly: Antiplasmodial activity against asexual blood stage chloroquine-sensitive Plasmodium falciparum 3D7 assessed as parasite growth inhibition by image-based assay. Type of test: functional, organism-based.
Test [3] deals with Plasmodium falciparum. Briefly: Antiplasmodial activity against Plasmodium falciparum assessed as parasite growth inhibition. Type of test: functional, organism-based.
The subject of test [4] is Plasmodium falciparum. Briefly: Antiplasmodial activity against asexual blood stage chloroquine-sensitive Plasmodium falciparum 3D7 assessed as parasite growth inhibition at 2 uM by image-based assay relative to control. Type of test: functional.

Consider `CC[C@H](C)[C@@H]1NC(=O)[C@H]([C@@H](C)O)NC(=O)CNC(=O)CNC(=O)[C@H](Cc2ccccc2)NC(=O)CNC(=O)[C@H](Cc2ccccc2)NC(=O)[C@H]([C@@H](C)CC)NC1=O` (cyclo(FGFGGTII)), for which, in the test on Plasmodium falciparum [1], the inhibition at 40 µM was 78%. The IC50 in the test with Plasmodium falciparum [2] was found to be 25 µM; in the test with Plasmodium falciparum [3], 16 µM.

As for `CC(C)C[C@@H]1NC(=O)CNC(=O)[C@H](CC(C)C)NC(=O)[C@@H]2CCCN2C(=O)[C@H](Cc2ccc(O)cc2)NC(=O)[C@H](CC(C)C)NC(=O)[C@H](CC(C)C)NC1=O` (cyclo(GLLLYPL)), the half-maximal inhibitory concentration (IC50) in the test on Plasmodium falciparum [3] amounted to 25 µM.

In the case of `CC(C)C[C@@H]1NC(=O)[C@H](CC(C)C)NC(=O)[C@H](C(C)C)NC(=O)CNC(=O)[C@H](CC(C)C)NC(=O)[C@@H]2CCCN2C(=O)[C@H](Cc2ccc(O)cc2)NC1=O` (cyclo(GVLLYPL)), the IC50 in the test on Plasmodium falciparum [3] stood at 57 µM.

Take `CC[C@H](C)[C@@H]1NC(=O)[C@H]([C@@H](C)O)NC(=O)c2cccc(c2)CNC(=O)[C@H](Cc2ccccc2)NC(=O)CNC(=O)[C@H](Cc2ccccc2)NC(=O)[C@H]([C@@H](C)CC)NC1=O` (cyclo([3Amb]TIIFGF)): in the test on Plasmodium falciparum [1], the inhibition at 40 µM is 86%. Further, in the test with Plasmodium falciparum [2], the half-maximal inhibitory concentration (IC50) stood at 4 µM.

On to `CC[C@H](C)[C@@H]1NC(=O)[C@H]([C@@H](C)O)NC(=O)c2ccc(cc2)NC(=O)[C@H](Cc2ccccc2)NC(=O)CNC(=O)[C@H](Cc2ccccc2)NC(=O)[C@H]([C@@H](C)CC)NC1=O` (cyclo([4Abz]TIIFGF)), for which the inhibition at 40 µM with Plasmodium falciparum [1] came to 12%.

For `CC[C@H](C)[C@@H]1NC(=O)[C@H]([C@@H](C)O)NC(=O)CCCCNC(=O)[C@H](Cc2ccccc2)NC(=O)CNC(=O)[C@H](Cc2ccccc2)NC(=O)[C@H]([C@@H](C)CC)NC1=O` (cyclo([Ava]TIIFGF)), the inhibition at 40 µM in the test with Plasmodium falciparum [1] worked out at 87%. Also, in the test on Plasmodium falciparum [2], the half-inhibitory concentration (IC50) was 23 µM.

As for `C[C@@H]1CC[C@H]2[C@@H](C)C(=O)O[C@@H]3O[C@@]4(C)CC[C@@H]1[C@]32OO4` [ARTEMISININ], the half-inhibitory concentration (IC50) in the test on Plasmodium falciparum [2] was determined as 0.013 µM. The inhibition at 2 µM in the test with Plasmodium falciparum [4] amounted to 100%.
